Reference: patent publication US20070060636A1, “High enantiomeric purity dexanabinol for pharmaceutical compositions” (priority 2002, published 2007)
Read-outs that look alike come from different tables or passages of the source.

How the values were obtained:
[1] = Phase II study, single i.v. dose in patients with severe head trauma; format: in vivo, human; settings: human, plasma, iv, severe TBI patients, mean ± SE; for AUC / Cmax: up to 24 hr; for Vd: read-out: Vss
Description: (§1) A Phase II, double masked, multi-center study was conducted to evaluate the safety and tolerance of dexanabinol of high enantiomeric purity following a single intravenous administration in patients with severe head trauma (Knoller N. et al., Crit. Care Med. 30: 548-54, 2002). Treatment was administered within 6 hours of injury, based on the therapeutic window observed in relevant animal models. Additional objectives of the study were to evaluate the long-term outcome of the patients and to determine the optimal dose for Phase III studies.
(§2) Medical information was collected en route or upon arrival at the hospital to determine a patient's suitability for enrollment and a randomized patient number was assigned. Written informed consent was obtained from relatives, all eligible patients being in coma. Antihistamines (promethazine hydrochloride PHENERGAN® 25 mg and cimetidine 50 mg) were administered by intravenous bolus injection 15 minutes prior to study drug administration. Dexanabinol was manufactured and formulated as previously described (50 mg/ml in CREMOPHOR EL®:ethanol clinical formulation) and diluted into 100 ml saline prior to injection. Solutions of dexanabinol were infused intravenously using a peristaltic pump (Ivac) at a rate of 6 ml/min (or approximately 15 min/dose). The total doses of dexanabinol scheduled to be administered were 48, 150, or 200 mg per patient. Five milliliters of blood were removed (from the contralateral arm) at the end of the infusion, at 10 and 30 min, and at 1, 3, 6, 12, and 24 hours thereafter for determination of plasma dexanabinol concentrations. Pharmacokinetic parameters were estimated by non-compartmental methods (WinNonlin Professional version 3.2) up to 24 hr post-injection.
(§3) Primary end points included intracranial pressure (ICP), cardiovascular function (heart rate, mean arterial blood pressure, cerebral perfusion pressure and electrocardiogram), clinical laboratory tests, and adverse medical events. The clinical outcome was assessed by the Glasgow outcome scale throughout a six month follow-up period. The nature and incidence of adverse medical events were similar in all groups supporting the safety of dexanabinol of high enantiomeric purity. […] Dexanabinol is currently being tested in a Phase III clinical trial for TBI.

[2] = system: severe traumatic brain injury (TBI); test: as above; format: in vivo, human; settings: for AUC∞/Dose: severe TBI patients, mean ± SE, normalized for dose (mg/kg)
Description: as §1, §2, §3

[3] = system: intra-ocular pressure (IOP); test: IOP lowering after topical administration in normotensive rabbits; format: in vivo, New Zealand White albino rabbits
Description: New Zealand White albino rabbits weighing 2-2.5 kg were acclimatized in our animal facility for at least a week prior to IOP measurements. Drug, saline and blank-vehicle groups (n=8-12 animals per group) were included. In most experiments, 50 μl drops were applied at 09:00 and measurements were taken 1 hour, 3, 5, and 7 hours later. Baseline IOP was individualized for each animal and time point prior to drug testing. IOP was measured by a Digilab Pneumatonometer, Model 30R. ΔIOP was calculated by subtracting the baseline IOP from IOP value measured after drug application at a corresponding time point. Maximal ΔIOP and area under the ΔIOP×hours curve (AUC) were calculated and averaged for each group. Data of IOP, AUC, blood pressure and toxicity were analyzed by the Wilcoxon-Rank test.

[4] = 48 mg single i.v. infusion (n = 10)
[5] = 150 mg single i.v. infusion (n = 20)
[6] = 200 mg single i.v. infusion (n = 21)

Structure (SMILES): CCCCCCC(C)(C)c1cc(O)c2c(c1)OC(C)(C)[C@H]1CC=C(CO)C[C@H]21 [dexanabinol, 1,1-dimethylheptyl-(3S,4S)-7-hydroxy-Δ^6-tetrahydrocannabinol]
- AUC(0-inf) [1, 4]: 572 ng·h/mL
- MRT [1, 4]: 4.1 ± 0.7 h
- clearance [1, 4]: 22.6 ± 3.9 mL/min/kg
- half-life [1, 4]: 7 ± 0.9 h
- AUC [1, 4]: 548 ng·h/mL
- Cmax [1, 4]: 1150 ng/mL
- Vd [1, 4]: 6.6 ± 2.6 L/kg
- AUC(0-inf) [1, 5]: 1480 ng·h/mL
- MRT [1, 5]: 3.8 ± 0.4 h
- clearance [1, 5]: 31 ± 5.8 mL/min/kg
- half-life [1, 5]: 5.3 ± 0.5 h
- AUC [1, 5]: 1450 ng·h/mL
- Cmax [1, 5]: 1970 ng/mL
- Vd [1, 5]: 7.5 ± 1.5 L/kg
- AUC(0-inf) [1, 6]: 3250 ng·h/mL
- MRT [1, 6]: 3.5 ± 0.3 h
- clearance [1, 6]: 17.6 ± 1.9 mL/min/kg
- half-life [1, 6]: 6.3 ± 0.3 h
- AUC [1, 6]: 3170 ng·h/mL
- Cmax [1, 6]: 5790 ng/mL
- Vd [1, 6]: 4.2 ± 0.9 L/kg
- AUC∞/Dose [2, 4]: 51,846 ± 5,526 ng × min/ml
- AUC∞/Dose [2, 5]: 43,542 ± 4,329 ng × min/ml
- AUC∞/Dose [2, 6]: 69,007 ± 5,835 ng × min/ml
- neurological outcome ([2]; Glasgow outcome scale, six month follow-up): trend toward faster and better neurological outcome
- Cmax Ratio to Phase II ([2]; human Phase II, 150 mg single i.v., reference itself): 1.0
- safety in severe head injury ([2]; single i.v. 48, 150 or 200 mg within 6 hours of injury): safe and well tolerated
- intracranial pressure/cerebral perfusion pressure control ([2]; treated patients, without jeopardizing blood pressure): significantly better
- AUC (ΔIOP×hours) ([3]; 0.02% topical): 6.4±2.5 mmHg×Hour
- maximal ΔIOP ([3]; 0.02% topical): 1.8±0.7 mmHg
- AUC (ΔIOP×hours) ([3]; 0.05% topical): 5.1±3.7 mmHg×Hour
- maximal ΔIOP ([3]; 0.05% topical): 1.8±0.9 mmHg
- maximal ΔIOP ([3]; 0.1% topical): 2.9±0.4 mmHg
- AUC (ΔIOP×hours) ([3]; 0.1% topical, ±SEM): 14.6±2.2 mmHg×Hour
- AUC (ΔIOP×hours) ([3]; 0.2% topical): 6.9±1.7 mmHg×Hour
- maximal ΔIOP ([3]; 0.2% topical): 2.2±0.6 mmHg
- IOP lowering effect compared to the vehicle and the saline ([3]; all doses 0.02%, 0.05%, 0.1%, 0.2%, masked study): small, yet statistically significant
- IOP lowering effect over three days ([3]; daily application for three days, n=8): sustained IOP lowering effect
